Laboratory results reported in PMC6154603, “Study on the Rationality for Antiviral Activity of Flos Lonicerae Japonicae-Fructus Forsythiae Herb Couple Preparations Improved by Chito-Oligosaccharide via Integral Pharmacokinetics” (Molecules : A Journal of Synthetic Chemistry and Natural …, 2017).

Experiments:
Caco-2 cell = test: In vitro Caco-2 cell transport model; type: in vitro ADME, human; conditions: Shuang-Huang-Lian, with 0.1% (w/v) of COS vs control
Source text: The protocol of Caco-2 cell study was shown previously.

[1] = Pharmacokinetics of caffeic acid derivatives after oral administration of the FLJ-FF herb couple; set-up: species or system rats; conditions: rat, in vivo
Description: The pharmacokinetics of caffeic acid derivatives in the FLJ-FF herb couple was studied in our previous study. Integral concentrations at each time point for the eight components were calculated based on the AUC-weighting method. The weighting coefficient for each component was calculated using Equations (4) and (5). […] AUC was determined using GraphPad Prism for Windows, version 5 (Graph Pad Software Inc., San Diego, CA, USA). […] Subsequently, plasma was prepared by centrifugation at 1816× g for 7 min and immediately analyzed or stored at −70 °C for further analysis after being mixed with 10 μL of 5% formic acid. The treatment and UPLC-ESI-MS/MS analysis for samples have been studied previously.

influenza A virus (H1N1) = test: microbe, parasite or virus in culture; type: cell-based; conditions: for IC50: Influenza A virus, H1N1, MDCK, tested 0.0625-1.0000 mM, unit inferred, read-out: IC50 (anti-viral activity)
[2] = In vivo pharmacokinetic study of FLJ-FF herb couple preparations with or without COS; set-up: species or system rats; conditions: rat, po
Source text: The rats were administrated product A and A4 at the dosages of at the dosage of 32 g raw medicine per kilogram, product B and B4 at the dosage of 64 g raw medicine per kilogram, product C and C4 at the dosage of 48 g raw medicine per kilogram, and product D and D4 at the dosage of 160 g raw medicine per kilogram, respectively.

[3] = tested on: influenza virus strain, A/PR8/34 (H1N1); type: cell-based; conditions: compared with PBS group; ribavirin 20 mg/kg orally as positive control; Figure S1

## O=C(C=Cc1ccc(O)c(O)c1)OC1CC(O)(C(=O)O)CC(O)C1OC(=O)C=Cc1ccc(O)c(O)c1 (stereo not drawn) [3,4-dicaffeoylquinic acid]
Caco-2 cell
  highest Papp-value increase: 5.86 fold
[1]
  AUC(0-inf): 213 ng·h/mL
  AUC(0-t): 141 ng·h/mL
  Cmax: 66.7 ± 15.4 ng/mL
  MRT last: 7.6 h
  Tmax: 0.167 h
  half-life: 9.18 ± 0.649 h
Influenza A virus (H1N1)
  IC50: 401 µM

## O=C(/C=C/c1ccc(O)c(O)c1)O[C@@H]1C[C@](O)(C(=O)O)C[C@@H](OC(=O)/C=C/c2ccc(O)c(O)c2)[C@H]1O [3,5-dicaffeoylquinic acid]
Caco-2 cell
  highest Papp-value increase: 8.66 fold
[2]; AUC (Control)
  AUC: 57.7 ng·h/mL
[1]
  AUC(0-inf): 54.2 ng·h/mL
  AUC(0-t): 53.1 ng·h/mL
  Cmax: 70.5 ± 28.1 ng/mL
  MRT last: 6.39 h
  Tmax: 0.1667 ± 0 h
  half-life: 5.95 ± 0.559 h
Influenza A virus (H1N1)
  IC50: 393 µM

## O=C(/C=C/c1ccc(O)c(O)c1)O[C@@H]1C[C@](O)(C(=O)O)C[C@@H](O)[C@H]1O [Chlorogenic acid]
[2]; 25 mg/kg, AUC (Absorption Enhancer)
  AUC: 968 ng·h/mL
[2]; AUC (Control)
  AUC: 638 ng·h/mL
[1]
  AUC(0-inf): 3160 ng·h/mL
  AUC(0-t): 3220 ng·h/mL
  Cmax: 2500 ± 438 ng/mL
  MRT last: 4.74 h
  half-life: 3.9 ± 0.699 h
Influenza A virus (H1N1)
  antiviral activity, folds lower than that of forsythoside A: 2.47 folds
  IC50: 754 µM

## O=C(C=Cc1ccc(O)c(O)c1)OC1C(O)CC(O)(C(=O)O)CC1O (stereo not drawn) [Cryptochlorogenic acid, cryptochlorogenic acid]
Caco-2 cell
  highest Papp-value increase: 3.13 fold
[1]
  AUC(0-inf): 726 ng·h/mL
  AUC(0-t): 713 ng·h/mL
  Cmax: 950 ± 201 ng/mL
  MRT last: 4.84 h
  Tmax: 0.167 h
  half-life: 4.64 ± 1.03 h
Influenza A virus (H1N1)
  IC50: 735 µM

## O=C(C=Cc1ccc(O)c(O)c1)OC1CC(O)(C(=O)O)CC(O)C1O (stereo not drawn) [Neochlorogenic acid]
[1]
  AUC(0-inf): 715 ng·h/mL
  AUC(0-t): 579 ng·h/mL
  Cmax: 575 ± 170 ng/mL
  MRT last: 5.3 h
  Tmax: 0.167 h
  half-life: 3.49 ± 0.423 h
Influenza A virus (H1N1)
  IC50: 722 µM

## NC(=O)c1ncn([C@@H]2O[C@H](CO)[C@@H](O)[C@H]2O)n1 [ribavirin]
[3]
  inhibition rate on influenza virus: remarkable increase
